Experiments:
[1] = system: human umbilical vein endothelial cells; experiment: Cell viability assay of human umbilical vein endothelial cells; format: cell-based; settings: 24 hours
Procedure: A medium in a culturing plate containing cells grown covering the whole bottom of the culturing plate, was removed. The cells were washed with 10 ml of PBS, and then suspended and mixed well with 10 ml of medium (a part of the cells need to be suspended with Trypsin-EDTA buffer). The numbers of the cells were calculated by a hemocytometer, and the cells were diluted to an appropriate cell concentration and added into the wells of a 24 well culturing plate by an amount of 500 μl/well. The 24 well culturing plates were placed in an incubator at 37° C. in a humidified atmosphere containing 5% CO2. After the cells were attached onto the bottom of the wells, the medium in each well was removed, and fresh mediums with different concentrations of a test drug were added into wells, respectively (if the cells were suspension cells, the fresh medium may be added into the wells, directly). Then, the 24 well culturing plates were placed in an incubator at 37° C. in a humidified atmosphere containing 5% CO2 for 24 hours. After that, an upper medium in each well was removed. The cells were washed with a PBS buffer twice, and then an MTT solution which was prepared with a medium was added to each well. After the 24 well culturing plates were placed in an incubator at 37° C. for reacting 4-6 hours, an upper medium in each well was removed, and 100 μl of DMSO was added to each well to solubilize the formazan precipitates. After that, an ELISA reader was used to determine the absorbance for each well at 600 nm.
After human umbilical vein endothelial cells were treated with the different concentrations of L-Aspartic acid β-hydroxamate (CH) and different concentrations of L-Glutamic acid γ-hydroxamate (DH) for 24 hours, respectively, the cell viability assays were performed to the treated human umbilical vein endothelial cells and the angiogenesis conditions of the human umbilical vein endothelial cells were recorded. The results of the cell viability assays are shown as FIGS. 13 (A) and 14 (A). Photographs for the human umbilical vein endothelial cells treated with L-Aspartic acid β-hydroxamate (CH) and human umbilical vein endothelial cells treated with L-Glutamic acid γ-hydroxamate (DH) are shown as FIGS. 13 (B) and 14 (B), respectively.

[2] = system: human umbilical vein endothelial cells; experiment: Tube formation assay (angiogenesis); format: cell-based
Procedure: 13. Tube Formation Assay (Malinda et al., 1999)
1μ-Slide Angiogenesis ibiTreat chambers were coated with 10 μl Matrigel™ Mixtrix and placed in an incubator at 37° C. for 1 hour. 40 μl of a 3×10^5 cells/ml cell suspension was added to each chamber and left still for 20 minutes to let the cells attach to the chamber. After that, the medium in each chamber was removed. Fresh mediums with different concentrations of a test drug were added to the chambers, respectively and placed in an incubator at 37° C. After 18 hours, the angiogenesis appearance in each chamber was observed and photographed for recording.

[3] = system: matrix metalloproteinase-2; experiment: Gelatin gel zymography of PMA-induced HT 1080 cells, MMP-2 activity; format: cell-based, Human; settings: HT 1080 cells, 0.4, 0.8, 1.2 and 1.6 mM, 24 hours
Procedure: (§1) 4. Gelatin Gel Zymography (Shim et al., 2003; Park et al., 2005; Hwang et al., 2006)
(§2) HT 1080 cells with appropriate cell numbers were cultured in 60 mm culturing plates for 12 hours, respectively. After the cells were attached onto the bottom of the plate and formed a monolayer, the medium in the plate was removed. Fresh serum free mediums with different concentrations of a test sample were added to the plates, respectively, and 100 nM PMA was added to each plate to induce the cells to express great quantities of matrix metalloproteinase-2 and matrix metalloproteinase-9, and the plates were placed in a temperature of 37° C. for 24 hours. After centrifugation, each cultured supernatant were saved and mixed with SDS-sample buffer under the same protein contents which were then injected into a 10% SDS-polyacrylamide gel (containing 1 mg/ml gelatin) and then electrophoresed. After the electrophoresis was completed, the gel was taken out and washed with 20 mM Tris-HCl containing 25% isopropanol three times; 10 minutes per time. Then the gel was equilibrated with 20 mM Tris-HCl for 30 minutes, and finally an incubate buffer (5 mM CaCl2 and 1 mM ZnCl2) was added to the gel and reacted with the gel overnight. Then the gel was stained with coomassie blue, and positions having matrix metalloproteinase activity of the gel presented a white color.

[4] = system: matrix metalloproteinase-9; experiment: Gelatin gel zymography of PMA-induced HT 1080 cells, MMP-9 activity; format: cell-based, Human; settings: HT 1080 cells, 0.4, 0.8, 1.2 and 1.6 mM, 24 hours
Procedure: as §1, §2

| Compound | cytotoxicity to human umbilical vein endothelial cells ([1]; 0.25 mM) | viability of human umbilical vein endothelial cells ([1]; 0.75 mM) | angiogenesis inhibition at 0.25 mM ([2]; 0.25 mM) | inhibition rate to angiogenesis ([2]; about 0.1-1.5 mM, stated as embodiment) | angiogenesis compared with the control group ([2]; increasing concentrations) | matrix metalloproteinase-2 inhibiting activity [3] | matrix metalloproteinase-9 inhibiting activity [4] |
| --- | --- | --- | --- | --- | --- | --- | --- |
| NC(CC(=O)NO)C(=O)O [CH, L-Aspartic acid β-hydroxamate] | no cytotoxicity | slight decreases | already had an effect of inhibiting angiogenesis | 10-90% | significantly inhibited | – | – |
| N[C@@H](CCC(=O)O)C(=O)O [D, L-Glutamic acid, reference compound] | – | – | – | – | – | no inhibiting effect | no inhibiting effect |

Reference: patent US20120101163A1, “COMPOSITION FOR INHIBITING CANCER METASTASIS” (TAIPEI MEDICAL UNIVERSITY, priority 2010, published 2012)
